Results on five molecules are retold here after US10858312B1, “Gossypol isocyanate ester compounds with antileukemic activities and a method of preparing the same” (SHAANXI PANLONG PHARMACEUTICAL GROUP LIMITED BY SHARE LTD., priority 2020, dated 2020).

Format in all cases: cell-based
Assay [1] relates to Jurkat (acute T-cell leukemia). Put plainly: CCK8 growth inhibition of leukemia cells, Jurkat. The settings on record: for IC50: Homo sapiens, Jurkat, 48 h, read-out: IC50 Jurkat. As to the method: (§1) Example 6: CCK8 Method to Detect the Growth Inhibitory Effect of Gossypol Isocyanate Ester Compounds on Three Kinds of Leukemia Cells
(§2) Cell lines: Jurkat (acute T-cell leukemia), HL-60 (human promyelocytic leukemia cells), K-562 (chronic myeloid leukemia), provided by the Affiliated Hospital of Guangdong Medical College. The cells were cultured in RPMI1640 medium containing 10% fetal bovine serum, penicillin […], streptomycin 100 mg/L, 37° C., 5% CO2, saturated humidity incubator, and the logarithmic growth phase cells were tested.
(§3) Test method: The logarithmic growth phase leukemia cell lines were taken, counted, and inoculated on a 96-well culture plate at a density of 1×10^5/mL, 100 μL per well. After 24 hours of cultivation, 100 μL of double-concentration medium containing different concentrations of compounds was added to each well. The medium containing the highest concentration of DMSO was used as the solvent control. After 48 hours of drug action, 20 μL of CCK8 color developing solution was added to each well, and the color was developed at 37° C. The OD450 was measured with a microplate reader until the absorbance was about 1.5. The inhibition rate was calculated using the formula: Inhibition Rate (%)=(1−Absorbance Value of Administration Group/Absorbance Value of Control Group)×100%
(§4) The half-inhibitory concentration of cells (IC50) was calculated by the Kou's method.

Assay [2] has as its system HL-60 (human promyelocytic leukemia cells). Briefly: CCK8 growth inhibition of leukemia cells, HL-60. The settings on record: for IC50: Homo sapiens, HL-60, 48 h, read-out: IC50 HL-60. The method, then: as §1, §2, §3, §4
The subject of assay [3] is K-562 (chronic myeloid leukemia). Briefly: CCK8 growth inhibition of leukemia cells, K-562. Conditions: for IC50: Homo sapiens, K562, 48 h, read-out: IC50 K562. As to the method:
as §1, §2, §3, §4

Each structure is given as a SMILES string.

In general, IC50 refers to the concentration that inhibits the measured activity by half. Take `Cc1cc2c(c(O)c1-c1c(C)cc3c(c1O)/C(=C/OC(=O)Nc1ccc(N)cc1)C(=O)C(O)=C3C(C)C)/C(=C/OC(=O)Nc1ccc(N)cc1)C(=O)C(O)=C2C(C)C` [Compound 3, ((8Z,8′Z)-1,1′,6,6′-tetrahydroxy-5,5′-diisopropyl-3,3′-dimethyl-7,7′-dioxo-[2,2′-binaphthalene]-8,8′(7H,7′H)-diylidene)bis(methaneylylidene) bis((4-aminophenyl)carbamate)]: the IC50 in assay [1] is 13 µM; in assay [2], 26.6 µM; in assay [3], 16.3 µM. The “anti-leukemia activity (in words)” value is “active” in assay [1] (Jurkat cells, CCK8); “active” in assay [2] (HL-60 cells, CCK8); “active” in assay [3] (K562 cells, CCK8).

Regarding `CCNC(=O)O/C=C1\C(=O)C(O)=C(C(C)C)c2cc(C)c(-c3c(C)cc4c(c3O)/C(=C/OC(=O)NCC)C(=O)C(O)=C4C(C)C)c(O)c21` [Compound 2, (1Z,1′Z)-(1,1′,6,6′-tetrahydroxy-5,5′-diisopropyl-3,3′-dimethyl-7,7′-dioxo-[2,2′-binaphtha-lene]-8,8′(7H,7′H)-diylidene)bis(methanylylidene) bis(ethylcarbamate)], the IC50 in assay [1] was 68.2 µM; in assay [2], 92.2 µM; in assay [3], 49.1 µM.

Consider `Cc1cc2c(c(O)c1-c1c(C)cc3c(c1O)/C(=C/OC(=O)Nc1cccc4c(N)cccc14)C(=O)C(O)=C3C(C)C)/C(=C/OC(=O)Nc1cccc3c(N)cccc13)C(=O)C(O)=C2C(C)C` [Compound 4, ((8Z,8′Z)-1,1′,6,6′-tetrahydroxy-5,5′-diisopropyl-3,3′-dimethyl-7,7′-dioxo-[2,2′-binaphthalene]-8,8′(7H,7′H)-diylidene)bis(methaneylylidene) bis((5-aminonaphthalen-1-yl)carbamate)], for which the IC50 turned out to be 21.7 µM in assay [1], 15.9 µM in assay [2] and 21.7 µM in assay [3].

Regarding `Cc1cc(-c2ccc(NC(=O)O/C=C3\C(=O)C(O)=C(C(C)C)c4cc(C)c(-c5c(C)cc6c(c5O)/C(=C/OC(=O)Nc5ccc(-c7ccc(N)c(C)c7)cc5C)C(=O)C(O)=C6C(C)C)c(O)c43)c(C)c2)ccc1N` [Compound 5, ((8Z,8′)-1,1′,6,6′-tetrahydroxy-5,5′-diisopropyl-3,3′-dimethyl-7,7′-dioxo-[2,2′-binaphthalene]-8,8′(7H,7′H)-diylidene)bis(methaneylylidene) bis((4′-amino-3,3′-dimethyl-[1,1′-biphenyl]-4-yl)carbamate)], the values for the IC50 in assay [1], in assay [2] and in assay [3] were 32.6 µM, 28.4 µM and 48.8 µM, respectively.

Regarding `Cc1cc2c(c(O)c1-c1c(C)cc3c(c1O)/C(=C/OC(=O)Nc1ccccc1)C(=O)C(O)=C3C(C)C)/C(=C/OC(=O)Nc1ccccc1)C(=O)C(O)=C2C(C)C` [Compound 1, (1Z,1′Z)-(1,1′,6,6′-tetrahydroxy-5,5′-diisopropyl-3,3′-dimethyl-7,7′-dioxo-[2,2′-binaphthal-ene]-8,8′(7H,7′H)-diylidene)bis(methanylylidene) bis(phenylcarbamate)], the results for the IC50 in assay [1], in assay [2] and in assay [3] were 18.3 µM, 31.7 µM and 37.1 µM, respectively.
